From patent US20140329863A1 (priority 2011, published 2014)

test system: PrP^Sc in nondividing ScN2a-cl3 cells; assay: not given; assay type: cell-based, mouse; settings: read-out: Non-Dividing ELISA EC50 (μM) Mean (n = 3); ScN2a-c13 non-dividing cells; mean n = 3

Row | Structure (SMILES) | EC50 [µM]
1 | COc1ccc(NC(=O)c2csc(Nc3ccc(C)cn3)n2)cc1OC [compound 46, 2-(5-Methylpyridin-2-ylamino)-thiazole-4-carboxylic acid (3,4-dimethoxyphenyl)-amide] | > 32
2 | COc1ccc(-c2csc(NC(=O)c3cc4ccccc4cn3)n2)cc1OC [compound 47, Isoquinoline-3-carboxylic acid [4-(3,4-dimethoxyphenyl)-thiazol-2-yl]amide] | > 10
3 | COc1ccc(-c2csc(C(=O)Nc3cc4ccccc4cn3)n2)cc1OC [compound 48, 4-(3,4-dimethoxyphenyl)-thiazole-2-carboxylic acid isoquinolin-3-ylamide] | > 10
4 | COc1ccc(-c2csc(N(C)c3cc4ccccc4cn3)n2)cc1OC [compound 49, [4-(3,4-dimethoxyphenyl)-thiazol-2-yl]-isoquinolin-3-yl-methyl-amine] | > 10
5 | COc1ccc(-c2csc(N(C(C)=O)c3cc4ccccc4cn3)n2)cc1OC [compound 50, N-[4-(3,4-dimethoxyphenyl)-thiazol-2-yl]-N-isoquinolin-3-yl-acetamide] | > 10

test system: PrP^Sc in dividing ScN2a-cl3 cells; assay: not given; assay type: cell-based, mouse; set-up: Dividing ELISA pEC50 (μM) 1st Expt. / Dividing ELISA pEC50 (μM) 2nd Expt. / Dividing ELISA pEC50 (μM) 3rd Expt. / Dividing ELISA pEC50 (μM) Mean: unit not given here; settings: ScN2a-cl3 dividing cells; 1st determination

Row | Structure (SMILES) | Dividing ELISA pEC50 (μM) 1st Expt.
6 | COc1ccc(NC(=O)c2csc(Nc3ccc(C)cn3)n2)cc1OC [compound 46, 2-(5-Methylpyridin-2-ylamino)-thiazole-4-carboxylic acid (3,4-dimethoxyphenyl)-amide] | 5.50
7 | COc1ccc(-c2csc(NC(=O)c3cc4ccccc4cn3)n2)cc1OC [compound 47, Isoquinoline-3-carboxylic acid [4-(3,4-dimethoxyphenyl)-thiazol-2-yl]amide] | 5.01
8 | COc1ccc(-c2csc(C(=O)Nc3cc4ccccc4cn3)n2)cc1OC [compound 48, 4-(3,4-dimethoxyphenyl)-thiazole-2-carboxylic acid isoquinolin-3-ylamide] | >4.5
9 | COc1ccc(-c2csc(N(C)c3cc4ccccc4cn3)n2)cc1OC [compound 49, [4-(3,4-dimethoxyphenyl)-thiazol-2-yl]-isoquinolin-3-yl-methyl-amine] | 6.82
10 | COc1ccc(-c2csc(N(C(C)=O)c3cc4ccccc4cn3)n2)cc1OC [compound 50, N-[4-(3,4-dimethoxyphenyl)-thiazol-2-yl]-N-isoquinolin-3-yl-acetamide] | 7.04

same assay, conditions: ScN2a-cl3 dividing cells; 2nd determination

Row | Structure (SMILES) | Dividing ELISA pEC50 (μM) 2nd Expt.
11 | COc1ccc(NC(=O)c2csc(Nc3ccc(C)cn3)n2)cc1OC [compound 46, 2-(5-Methylpyridin-2-ylamino)-thiazole-4-carboxylic acid (3,4-dimethoxyphenyl)-amide] | 5.72
12 | COc1ccc(-c2csc(NC(=O)c3cc4ccccc4cn3)n2)cc1OC [compound 47, Isoquinoline-3-carboxylic acid [4-(3,4-dimethoxyphenyl)-thiazol-2-yl]amide] | 5.41
13 | COc1ccc(-c2csc(C(=O)Nc3cc4ccccc4cn3)n2)cc1OC [compound 48, 4-(3,4-dimethoxyphenyl)-thiazole-2-carboxylic acid isoquinolin-3-ylamide] | >4.5
14 | COc1ccc(-c2csc(N(C)c3cc4ccccc4cn3)n2)cc1OC [compound 49, [4-(3,4-dimethoxyphenyl)-thiazol-2-yl]-isoquinolin-3-yl-methyl-amine] | 6.71
15 | COc1ccc(-c2csc(N(C(C)=O)c3cc4ccccc4cn3)n2)cc1OC [compound 50, N-[4-(3,4-dimethoxyphenyl)-thiazol-2-yl]-N-isoquinolin-3-yl-acetamide] | 7.05

same assay, conditions: ScN2a-cl3 dividing cells; 3rd determination

Row | Structure (SMILES) | Dividing ELISA pEC50 (μM) 3rd Expt.
16 | COc1ccc(NC(=O)c2csc(Nc3ccc(C)cn3)n2)cc1OC [compound 46, 2-(5-Methylpyridin-2-ylamino)-thiazole-4-carboxylic acid (3,4-dimethoxyphenyl)-amide] | 5.66
17 | COc1ccc(-c2csc(NC(=O)c3cc4ccccc4cn3)n2)cc1OC [compound 47, Isoquinoline-3-carboxylic acid [4-(3,4-dimethoxyphenyl)-thiazol-2-yl]amide] | 4.97
18 | COc1ccc(-c2csc(C(=O)Nc3cc4ccccc4cn3)n2)cc1OC [compound 48, 4-(3,4-dimethoxyphenyl)-thiazole-2-carboxylic acid isoquinolin-3-ylamide] | >4.5
19 | COc1ccc(-c2csc(N(C)c3cc4ccccc4cn3)n2)cc1OC [compound 49, [4-(3,4-dimethoxyphenyl)-thiazol-2-yl]-isoquinolin-3-yl-methyl-amine] | 7.08
20 | COc1ccc(-c2csc(N(C(C)=O)c3cc4ccccc4cn3)n2)cc1OC [compound 50, N-[4-(3,4-dimethoxyphenyl)-thiazol-2-yl]-N-isoquinolin-3-yl-acetamide] | 7.19

same assay, conditions: ScN2a-cl3 dividing cells; mean of three determinations

Row | Structure (SMILES) | Dividing ELISA pEC50 (μM) Mean
21 | COc1ccc(NC(=O)c2csc(Nc3ccc(C)cn3)n2)cc1OC [compound 46, 2-(5-Methylpyridin-2-ylamino)-thiazole-4-carboxylic acid (3,4-dimethoxyphenyl)-amide] | 5.62
22 | COc1ccc(-c2csc(NC(=O)c3cc4ccccc4cn3)n2)cc1OC [compound 47, Isoquinoline-3-carboxylic acid [4-(3,4-dimethoxyphenyl)-thiazol-2-yl]amide] | 5.13
23 | COc1ccc(-c2csc(N(C)c3cc4ccccc4cn3)n2)cc1OC [compound 49, [4-(3,4-dimethoxyphenyl)-thiazol-2-yl]-isoquinolin-3-yl-methyl-amine] | 6.87
24 | COc1ccc(-c2csc(N(C(C)=O)c3cc4ccccc4cn3)n2)cc1OC [compound 50, N-[4-(3,4-dimethoxyphenyl)-thiazol-2-yl]-N-isoquinolin-3-yl-acetamide] | 7.09

same assay, conditions: read-out: Antiprion activity EC50; thienopyridine analogs

Row | Structure (SMILES) | EC50 [µM]
25 | COc1ccc(NC(=O)c2sc3nc(-c4cccs4)ccc3c2N)cc1OC [IND-0024573] | 0.396
26 | CSc1ccc(NC(=O)c2sc3nc(-c4cccs4)ccc3c2N)cc1 [IND-0024576] | 0.077

same assay, conditions: read-out: Dividing ELISA EC50 (μM) 1st Expt.; ScN2a-cl3 dividing cells; 1st determination

Row | Structure (SMILES) | EC50 [µM]
27 | COc1ccc(NC(=O)c2csc(Nc3ccc(C)cn3)n2)cc1OC [compound 46, 2-(5-Methylpyridin-2-ylamino)-thiazole-4-carboxylic acid (3,4-dimethoxyphenyl)-amide] | 3.19
28 | COc1ccc(-c2csc(NC(=O)c3cc4ccccc4cn3)n2)cc1OC [compound 47, Isoquinoline-3-carboxylic acid [4-(3,4-dimethoxyphenyl)-thiazol-2-yl]amide] | 9.81
29 | COc1ccc(-c2csc(C(=O)Nc3cc4ccccc4cn3)n2)cc1OC [compound 48, 4-(3,4-dimethoxyphenyl)-thiazole-2-carboxylic acid isoquinolin-3-ylamide] | > 10
30 | COc1ccc(-c2csc(N(C)c3cc4ccccc4cn3)n2)cc1OC [compound 49, [4-(3,4-dimethoxyphenyl)-thiazol-2-yl]-isoquinolin-3-yl-methyl-amine] | 0.152
31 | COc1ccc(-c2csc(N(C(C)=O)c3cc4ccccc4cn3)n2)cc1OC [compound 50, N-[4-(3,4-dimethoxyphenyl)-thiazol-2-yl]-N-isoquinolin-3-yl-acetamide] | 0.091

same assay, conditions: read-out: Dividing ELISA EC50 (μM) 2nd Expt.; ScN2a-cl3 dividing cells; 2nd determination

Row | Structure (SMILES) | EC50 [µM]
32 | COc1ccc(NC(=O)c2csc(Nc3ccc(C)cn3)n2)cc1OC [compound 46, 2-(5-Methylpyridin-2-ylamino)-thiazole-4-carboxylic acid (3,4-dimethoxyphenyl)-amide] | 1.93
33 | COc1ccc(-c2csc(NC(=O)c3cc4ccccc4cn3)n2)cc1OC [compound 47, Isoquinoline-3-carboxylic acid [4-(3,4-dimethoxyphenyl)-thiazol-2-yl]amide] | 3.93
34 | COc1ccc(-c2csc(C(=O)Nc3cc4ccccc4cn3)n2)cc1OC [compound 48, 4-(3,4-dimethoxyphenyl)-thiazole-2-carboxylic acid isoquinolin-3-ylamide] | > 10
35 | COc1ccc(-c2csc(N(C)c3cc4ccccc4cn3)n2)cc1OC [compound 49, [4-(3,4-dimethoxyphenyl)-thiazol-2-yl]-isoquinolin-3-yl-methyl-amine] | 0.196
36 | COc1ccc(-c2csc(N(C(C)=O)c3cc4ccccc4cn3)n2)cc1OC [compound 50, N-[4-(3,4-dimethoxyphenyl)-thiazol-2-yl]-N-isoquinolin-3-yl-acetamide] | 0.089

same assay, conditions: read-out: Dividing ELISA EC50 (μM) 3rd Expt.; ScN2a-cl3 dividing cells; 3rd determination

Row | Structure (SMILES) | EC50 [µM]
37 | COc1ccc(NC(=O)c2csc(Nc3ccc(C)cn3)n2)cc1OC [compound 46, 2-(5-Methylpyridin-2-ylamino)-thiazole-4-carboxylic acid (3,4-dimethoxyphenyl)-amide] | 2.21
38 | COc1ccc(-c2csc(NC(=O)c3cc4ccccc4cn3)n2)cc1OC [compound 47, Isoquinoline-3-carboxylic acid [4-(3,4-dimethoxyphenyl)-thiazol-2-yl]amide] | 10.8
39 | COc1ccc(-c2csc(C(=O)Nc3cc4ccccc4cn3)n2)cc1OC [compound 48, 4-(3,4-dimethoxyphenyl)-thiazole-2-carboxylic acid isoquinolin-3-ylamide] | > 10
40 | COc1ccc(-c2csc(N(C)c3cc4ccccc4cn3)n2)cc1OC [compound 49, [4-(3,4-dimethoxyphenyl)-thiazol-2-yl]-isoquinolin-3-yl-methyl-amine] | 0.083
41 | COc1ccc(-c2csc(N(C(C)=O)c3cc4ccccc4cn3)n2)cc1OC [compound 50, N-[4-(3,4-dimethoxyphenyl)-thiazol-2-yl]-N-isoquinolin-3-yl-acetamide] | 0.065

same assay, conditions: read-out: Dividing ELISA EC50 (μM) Mean; ScN2a-cl3 dividing cells; mean of three determinations

Row | Structure (SMILES) | EC50 [µM]
42 | COc1ccc(NC(=O)c2csc(Nc3ccc(C)cn3)n2)cc1OC [compound 46, 2-(5-Methylpyridin-2-ylamino)-thiazole-4-carboxylic acid (3,4-dimethoxyphenyl)-amide] | 2.44
43 | COc1ccc(-c2csc(NC(=O)c3cc4ccccc4cn3)n2)cc1OC [compound 47, Isoquinoline-3-carboxylic acid [4-(3,4-dimethoxyphenyl)-thiazol-2-yl]amide] | 8.18
44 | COc1ccc(-c2csc(C(=O)Nc3cc4ccccc4cn3)n2)cc1OC [compound 48, 4-(3,4-dimethoxyphenyl)-thiazole-2-carboxylic acid isoquinolin-3-ylamide] | > 10
45 | COc1ccc(-c2csc(N(C)c3cc4ccccc4cn3)n2)cc1OC [compound 49, [4-(3,4-dimethoxyphenyl)-thiazol-2-yl]-isoquinolin-3-yl-methyl-amine] | 0.144
46 | COc1ccc(-c2csc(N(C(C)=O)c3cc4ccccc4cn3)n2)cc1OC [compound 50, N-[4-(3,4-dimethoxyphenyl)-thiazol-2-yl]-N-isoquinolin-3-yl-acetamide] | 0.082

test system: not listed separately; assay: in vitro; settings: mouse

Row | Structure (SMILES) | CC50 [nM]
47 | COc1ccc(NC(=O)c2sc3nc(-c4cccs4)ccc3c2N)cc1OC [IND-0024573] | > 10000
48 | CSc1ccc(NC(=O)c2sc3nc(-c4cccs4)ccc3c2N)cc1 [IND-0024576] | > 10000

test system: not given; assay: not given; settings: not given

Row | Structure (SMILES) | melting point [°C]
49 | COc1ccc(NC(=O)c2csc(Nc3ccc(C)cn3)n2)cc1OC [compound 46, 2-(5-Methylpyridin-2-ylamino)-thiazole-4-carboxylic acid (3,4-dimethoxyphenyl)-amide] | 212 to 214
50 | COc1ccc(-c2csc(NC(=O)c3cc4ccccc4cn3)n2)cc1OC [compound 47, Isoquinoline-3-carboxylic acid [4-(3,4-dimethoxyphenyl)-thiazol-2-yl]amide] | 228 to 230
51 | COc1ccc(-c2csc(C(=O)Nc3cc4ccccc4cn3)n2)cc1OC [compound 48, 4-(3,4-dimethoxyphenyl)-thiazole-2-carboxylic acid isoquinolin-3-ylamide] | 196 to 202
52 | COc1ccc(-c2csc(N(C)c3cc4ccccc4cn3)n2)cc1OC [compound 49, [4-(3,4-dimethoxyphenyl)-thiazol-2-yl]-isoquinolin-3-yl-methyl-amine] | 165 to 166
53 | COc1ccc(-c2csc(N(C(C)=O)c3cc4ccccc4cn3)n2)cc1OC [compound 50, N-[4-(3,4-dimethoxyphenyl)-thiazol-2-yl]-N-isoquinolin-3-yl-acetamide] | 164 to 165

test system: N2a-cl3 cells; assay: cells; settings: Mus musculus, N2a-cl3, read-out: Dividing Calcein EC50 (μM) Mean (n = 3)

Row | Structure (SMILES) | EC50 [µM]
54 | COc1ccc(NC(=O)c2csc(Nc3ccc(C)cn3)n2)cc1OC [compound 46, 2-(5-Methylpyridin-2-ylamino)-thiazole-4-carboxylic acid (3,4-dimethoxyphenyl)-amide] | > 32
55 | COc1ccc(-c2csc(NC(=O)c3cc4ccccc4cn3)n2)cc1OC [compound 47, Isoquinoline-3-carboxylic acid [4-(3,4-dimethoxyphenyl)-thiazol-2-yl]amide] | > 10
56 | COc1ccc(-c2csc(C(=O)Nc3cc4ccccc4cn3)n2)cc1OC [compound 48, 4-(3,4-dimethoxyphenyl)-thiazole-2-carboxylic acid isoquinolin-3-ylamide] | > 10
57 | COc1ccc(-c2csc(N(C)c3cc4ccccc4cn3)n2)cc1OC [compound 49, [4-(3,4-dimethoxyphenyl)-thiazol-2-yl]-isoquinolin-3-yl-methyl-amine] | > 10
58 | COc1ccc(-c2csc(N(C(C)=O)c3cc4ccccc4cn3)n2)cc1OC [compound 50, N-[4-(3,4-dimethoxyphenyl)-thiazol-2-yl]-N-isoquinolin-3-yl-acetamide] | > 10
